Reference: patent US6399086B1, “Pharmaceutical preparations for the controlled release of beta-lactam antibiotics” (Yissum Research Development Company of the Hebrew …, priority 1997, dated 2002)

Assays:
Streptococci pneumoniae = settings: cited from earlier work
Staphylococcus aureus = settings: cited from earlier work
Streptococci group A = settings: cited from earlier work
Enterococcus faecalis = settings: cited from earlier work
[1] = Stability of active agent in the dissolution medium; format: physicochemical; settings: 37° C.
Protocol: Determination of Stability of active Agent in the Dissolution Medium
Following 1, 2, 4, 6, 8 and 24 hrs the absorption profile of the drug between 200 nm and 300 nm was determined and compared with the absorption profile of the solutions before storage.

Haemophilus influenza = settings: cited from earlier work

SMILES: CC1(C)S[C@@H]2[C@H](NC(=O)[C@H](N)c3ccc(O)cc3)C(=O)N2[C@H]1C(=O)O [Amoxicillin, amoxicillin trihydrate]
- MIC (Streptococci pneumoniae): 0.02 µg/mL
- MIC (Staphylococcus aureus): 0.1 µg/mL
- MIC (Streptococci group A): 0.01 µg/mL
- MIC (Enterococcus faecalis): 0.5 µg/mL
- Stability in solution ([1]; pH=1.2, after 1hr): deterioration occurred
- Stability in solution ([1]; pH=2, after 6 hrs): stable
- Stability in solution ([1]; pH=6.8, after 24 hrs): stable
- Stability in solution ([1]; pH=7.4, after 24 hrs): stable
- MIC (Haemophilus influenza): 0.25 µg/mL
